# Experimental data taken from publication PMC6273621, “Synthesis and the Biological Activity of Phosphonylated 1,2,3-Triazolenaphthalimide Conjugates” (Molecules, 2016).
# Like-named read-outs stand apart in the source and are kept apart here.
# Key:
# [1] = Cytotoxicity, cell growth (CC50) in HEL cells; type: cell-based; settings: human, concentration reducing cell growth by 50%
# HEL cells = assay: Cytotoxicity, cell morphology (MCC) in HEL cells; type: cell-based, human; settings: minimum cytotoxic concentration causing microscopically detectable alteration of cell morphology
# From the text: The cytotoxicity of the tested compounds toward the uninfected host cells was defined as the minimum cytotoxic concentration (MCC) that causes a microscopically detectable alteration of normal cell morphology.
# TK− VZV strain = assay: microbe, parasite or virus in culture; type: cell-based, varicella-zoster virus (VZV) strain 07−1; settings: concentration reducing virus plaque formation by 50%
# TK+ VZV strain = assay: microbe, parasite or virus in culture; type: cell-based, varicella-zoster virus (VZV) strain Oka; settings: concentration reducing virus plaque formation by 50%
# [2] = tested on: murine leukemia (L1210) cells; assay: Cytostatic activity, L1210 cell proliferation; type: cell-based; settings: Mus musculus, read-out: IC50 L1210
# Description: (§1) All assays were performed in 96-well microtiter plates. To each well were added (5–7.5) × 10^4 tumor cells and a given amount of the test compound. The cells were allowed to proliferate for 48 h (murine leukemia L1210 cells) or 72 h (human lymphocytic CEM and human cervix carcinoma HeLa cells) at 37 °C in a humidified CO2-controlled atmosphere. At the end of the incubation period, the cells were counted in a Coulter counter.
# [3] = tested on: L1210, CEM, HeLa and HMEC-1 cells; assay: Cytostatic activity, overall statement on the tested cell lines; type: cell-based; settings: naphthalimides devoid of the 1,2,3-triazole unit
# Description: as §1
# [4] = tested on: human T-lymphocyte (CEM) cells; assay: Cytostatic activity, CEM cell proliferation; type: cell-based; settings: CCRF-CEM, 72 h, read-out: IC50 CEM
# Description: as §1
# [5] = tested on: human cervix carcinoma cells (HeLa); assay: Cytostatic activity, HeLa cell proliferation; type: cell-based; settings: 72 h, read-out: IC50 HeLa
# Description: as §1
# [6] = tested on: human dermal microvascular endothelial HMEC-1 cells; assay: Cytostatic activity, HMEC-1 cell proliferation; type: cell-based
# [7] = Human alphaherpesvirus 3, HEL, read-out: Antiviral Activity EC50, TK− VZV Strain, HEL cell cultures
# [8] = Human alphaherpesvirus 3, HEL, read-out: Antiviral Activity EC50, TK+ VZV Strain, HEL cell cultures
# [9] = L1210, cell proliferation, 48 h
# [10] = HMEC-1, cell proliferation, read-out: IC50 HMEC-1
SMILES,"Cytotoxicity, Cell Morphology (MCC) (HEL cells)",EC50 (TK− VZV strain; [7]),EC50 (TK+ VZV strain; [8]),"IC50 [2, 9]",Cytostatic activity (in words) [3],IC50 ([4]; cell proliferation),IC50 ([5]; cell proliferation),"IC50 [6, 10]",melting point,further results
Nc1nc2c(ncn2COCCO)c(=O)[nH]1 [Acyclovir],–,–,–,–,–,–,–,–,–,CC50 ([1]; HEL cells (uninfected)): > 440 µM
"O=c1[nH]c(=O)n([C@H]2C[C@H](O)[C@@H](CO)O2)cc1/C=C/Br [Brivudin, reference compound]",>300 μM,24.9 µM,0.013 µM,–,–,–,–,–,–,"CC50 [1]: > 300 µM; EC50 (TK− VZV strain; read-out: Antiviral Activity EC50, TK− VZV Strain, HEL cell cultures): 13.7 µM; EC50 (TK+ VZV strain; read-out: Antiviral Activity EC50, TK+ VZV Strain, HEL cell cultures): 0.0078 µM"
C#CCN1C(=O)c2cccc3c(Br)ccc(c23)C1=O [Compound 8],–,–,–,≥ 250 µM,inactive,≥ 250 µM,> 250 µM,> 250 µM,–,–
"C#CCN1C(=O)c2cccc3cc([N+](=O)[O-])cc(c23)C1=O [Compound 11, 5-Nitro-2-(prop-2-yn-1-yl)-1H-benzo[de]isoquinoline-1,3(2H)-dione]",100 μM,> 100 µM,48.9 µM,177 ± 16 µM,inactive,229 ± 18 µM,109 ± 5 µM,> 250 µM,213 to 214 °C,–
"CCOP(=O)(COCCn1cc(CN2C(=O)c3cccc4cc([N+](=O)[O-])cc(c34)C2=O)nn1)OCC [Compound 16g, Diethyl 2-{4-[(5-Nitro-1,3-dioxo-1H-benzo[de]isoquinolin-2(3H)-yl)methyl]-1H-1,2,3-triazol-1-yl}ethoxy-methylphosphonate]",>100 μM,> 100 µM,50.2 µM,–,–,–,–,–,89 to 90 °C,"IC50 ([2]; L1210, 48 h): 71 ± 1 µM; IC50 [4]: 79 ± 4 µM; IC50 [5]: 76 ± 8 µM; IC50 ([6]; HMEC-1, read-out: IC50 HMEC-1): 148 ± 3 µM"
